# Source: the supplement of paper PMC10307832
# What was measured:
# Assay in all cases: relative viability (nuclei count vs DMSO), 5 days (fraction); higher = more cells survive
# [1] = compound: COc1cc2nc(N3CCCN(C)CC3)nc(NC3CCN(Cc4ccccc4)CC3)c2cc1OC + COc1cccc2cc(-c3nc([C@H]4CC[C@H](C(=O)O)CC4)n4ncnc(N)c34)[nH]c12 [OSI-027] (partner 0.5 µM)
# Procedure, shortened: (§1)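 Medians of duplicate plates are given as relative viability. That measure is the nuclei count in treated wells divided by the count in vehicle wells. Counts were taken on 4× images of lung cancer cell lines in 1536-well plates, 5 days after pin-tool dosing the day after seeding with one drug alone or a fixed anchor-drug dose plus five library-drug doses (not always all listed) in √10 steps.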
# [2] = compound: COc1cc2nc(N3CCCN(C)CC3)nc(NC3CCN(Cc4ccccc4)CC3)c2cc1OC + O=C(CCCCCCC(=O)Nc1ccccc1)NO [Vorinostat] (partner 1 µM)
# Procedure, shortened: as §1
# AZD6482 + Navitoclax = compound: Cc1cc([C@@H](C)Nc2ccccc2C(=O)O)c2nc(N3CCOCC3)cc(=O)n2c1 [AZD6482] + CC1(C)CCC(c2ccc(Cl)cc2)=C(CN2CCN(c3ccc(C(=O)NS(=O)(=O)c4ccc(N[C@H](CCN5CCOCC5)CSc5ccccc5)c(S(=O)(=O)C(F)(F)F)c4)cc3)CC2)C1 [Navitoclax] (partner 0.5 µM)
# Procedure, shortened: as §1
# AZD6482 + Linsitinib = compound: Cc1cc([C@@H](C)Nc2ccccc2C(=O)O)c2nc(N3CCOCC3)cc(=O)n2c1 [AZD6482] + C[C@]1(O)C[C@@H](c2nc(-c3ccc4ccc(-c5ccccc5)nc4c3)c3c(N)nccn32)C1 [Linsitinib] (partner 1 µM)
# Procedure, shortened: as §1
Cell Line,relative viability ([1]; first compound 0.2 µM),relative viability ([1]; first compound 0.6325 µM),relative viability ([1]; first compound 2 µM),relative viability ([1]; first compound 6.325 µM),relative viability ([2]; first compound 0.2 µM),relative viability ([2]; first compound 0.6325 µM),relative viability ([2]; first compound 2 µM),relative viability ([2]; first compound 6.325 µM),relative viability (AZD6482 + Navitoclax; first compound 0.08 µM),relative viability (AZD6482 + Navitoclax; first compound 0.253 µM),relative viability (AZD6482 + Navitoclax; first compound 0.8 µM),relative viability (AZD6482 + Navitoclax; first compound 2.53 µM),relative viability (AZD6482 + Navitoclax; first compound 8 µM),relative viability (AZD6482 + Linsitinib; first compound 0.08 µM),relative viability (AZD6482 + Linsitinib; first compound 0.253 µM),relative viability (AZD6482 + Linsitinib; first compound 0.8 µM),relative viability (AZD6482 + Linsitinib; first compound 2.53 µM),relative viability (AZD6482 + Linsitinib; first compound 8 µM)
NCI-H23,0.637,0.578,0.707,0.503,0.571,0.597,0.576,0.471,0.828,0.696,0.785,0.578,0.568,0.532,0.477,0.533,0.338,0.57
NCI-H322M,0.546,0.504,0.595,0.423,0.838,0.939,0.855,0.868,1.24,1,1.07,0.675,0.798,0.718,0.601,0.707,0.355,0.651
NCI-H441,0.576,0.521,0.573,0.591,0.77,0.647,0.927,0.862,0.752,0.59,0.563,0.702,0.632,0.459,0.499,0.554,0.323,0.531
NCI-H460,0.669,0.674,0.565,0.63,0.834,0.72,0.659,0.603,0.968,1.08,1.07,0.859,0.694,0.717,0.703,0.783,0.306,0.206
NCI-H520,0.315,0.269,0.212,0.234,0.77,0.77,0.586,0.209,0.839,0.785,0.703,–,0.344,0.773,0.623,0.59,–,0.412
NCI-H596,0.771,0.786,0.866,0.667,0.623,0.717,0.591,0.57,0.596,0.827,0.925,0.912,0.836,0.789,0.979,1.01,0.957,1.02
NCI-H647,0.597,0.664,0.62,0.272,0.588,0.669,0.614,0.24,0.949,–,0.929,0.555,0.806,0.877,–,0.739,0.7,0.659
NCI-H727,0.511,0.68,0.535,0.565,1.27,1.14,1.15,1.07,0.469,0.455,0.421,–,0.235,0.203,0.296,0.284,–,0.281
NCI-H838,0.433,0.429,0.362,0.375,0.772,0.695,0.938,0.626,0.984,1.08,1.05,0.622,0.623,0.805,0.994,0.934,0.614,0.769
NCI-H1355,0.393,0.456,0.467,0.401,0.654,0.618,0.724,0.605,0.551,0.697,0.711,0.588,0.61,0.472,0.55,0.576,0.526,0.536
NCI-H1395,0.715,0.731,0.677,0.419,0.617,1.24,0.896,0.491,0.831,0.822,0.803,0.542,0.733,0.879,0.639,0.661,0.436,0.732
NCI-H1437,0.901,0.876,0.85,0.918,0.871,0.778,0.982,0.734,1.06,1.13,1.12,0.816,0.692,0.943,1.08,0.998,0.574,0.657
NCI-H1651,0.706,0.686,0.729,0.714,0.56,0.617,0.561,0.548,0.883,0.917,0.881,0.676,0.636,0.674,0.663,0.733,0.63,0.591
NCI-H1666,0.816,0.877,0.757,0.859,1.08,0.943,0.958,1.06,0.794,0.846,0.706,0.749,0.528,0.536,0.586,0.63,0.589,0.574
NCI-H1734,0.587,0.583,0.506,0.501,0.813,0.76,0.778,0.717,0.73,0.604,0.726,0.449,0.776,0.666,0.589,0.701,0.384,0.554
NCI-H1755,0.791,0.663,0.671,0.518,0.777,0.67,0.759,0.573,0.833,0.737,0.682,0.43,0.498,0.87,0.864,0.75,0.497,0.467
NCI-H1793,0.241,0.365,0.225,0.293,0.692,1.06,0.871,0.638,0.29,0.23,0.251,–,0.312,0.325,0.503,0.615,–,0.46
NCI-H1915,0.584,0.619,0.684,0.637,0.506,0.426,0.514,0.472,0.772,0.696,0.83,0.739,0.739,0.982,1.1,1.09,1.03,1.1
